Measurements from PubChem BioAssay (NCI).
Several values for one entry are separate records, joined by “and”; a condition that tells them apart may be missing. Equal entries are not always repeated.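 Results reflect a 48-hour exposure of cells in 96-well plates to compound at five concentrations. The concentration for 50% growth inhibition is given as GI50. TGI denotes the concentration required for complete inhibition of growth.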

Legend:
Assay in all cases: NCI-60 cell line screen, 48 h
A498 renal = system: A498 renal
M14 melanoma = system: M14 melanoma
SF-268 CNS = system: SF-268 CNS
HL-60(TB) leukemia = system: HL-60(TB) leukemia
UACC-257 melanoma = system: UACC-257 melanoma
MALME-3M melanoma = system: MALME-3M melanoma
BT-549 breast = system: BT-549 breast
T-47D breast = system: T-47D breast
HOP-62 NSCLC = system: HOP-62 NSCLC
LOX IMVI melanoma = system: LOX IMVI melanoma

Row | Structure (SMILES) | GI50 (A498 renal) | TGI (A498 renal) | GI50 (M14 melanoma) | TGI (M14 melanoma) | GI50 (SF-268 CNS) | TGI (SF-268 CNS) | GI50 (HL-60(TB) leukemia) | TGI (HL-60(TB) leukemia) | GI50 (UACC-257 melanoma) | TGI (UACC-257 melanoma) | GI50 (MALME-3M melanoma) | TGI (MALME-3M melanoma) | GI50 (BT-549 breast) | TGI (BT-549 breast) | GI50 (T-47D breast) | TGI (T-47D breast) | GI50 (HOP-62 NSCLC) | TGI (HOP-62 NSCLC) | GI50 (LOX IMVI melanoma) | TGI (LOX IMVI melanoma)
1 | CC(C)=Cc1cccc2[nH]c(O)c(N=Nc3ccc(S(N)(=O)=O)cc3)c12 | > 25 µM | > 25 µM | > 25 µM | > 25 µM | 12.4 µM | > 25 µM | 3.37 µM | > 25 µM | > 25 µM | > 25 µM | > 25 µM | > 25 µM | > 22.8 µM | > 25 µM | > 25 µM | > 25 µM | > 14.3 µM | > 25 µM | 2.67 µM | > 25 µM
2 | CC[C@]12C=CCN3CC[C@@]4(c5ccc(OC)cc5N(C)[C@H]4[C@@](O)(C(=O)OC)[C@@H]1OC(=O)CCC(=O)O[C@H]1CC[C@H]4[C@@H]5CC[C@H]6CC(=O)CC[C@]6(C)[C@H]5CC[C@]14C)[C@@H]32 | 4.13 µM | 30.8 µM | 2 µM | 22.2 µM | 4.81 µM | > 100 µM | 2.12 µM | 5.36 µM | 3.91 µM | 16.6 µM | 2.98 µM | 57.7 µM | 2.21 µM | > 100 µM | 2.1 µM | 29.7 µM | 4.83 µM | > 100 µM | 2.83 µM | 11.7 µM
3 | COc1ccc2nc3c(cc2c1)C(=O)CC(c1ccccc1)C3 (configuration not stated) | 0.215 µM | 1.18 µM |  |  | > 100 µM | > 100 µM | 0.301 µM |  | > 100 µM | > 100 µM | 0.432 µM | > 100 µM | 1.36 µM | > 100 µM | 5.34 µM | > 100 µM | 2.75 µM | > 100 µM | 1.33 µM | > 100 µM
4 | CC1(C)N=c2cc3c(cc2N1c1ccc(Cl)cc1)=Nc1ccccc1N3c1ccc(Cl)cc1 | 8.37 µM | > 100 µM | 9.32 µM | > 100 µM | 7.56 µM | > 100 µM | 1.74 µM | 4.2 µM | 5.52 µM | > 100 µM | 4.79 µM | > 100 µM | 3.5 µM | 60.8 µM | 3.91 µM | > 100 µM | > 100 µM | > 100 µM | 5.44 µM | 24.8 µM
5 | CN(/N=C/c1ccccc1O)c1ccc2ccccc2n1 |  | 38.8 µM |  | > 100 µM |  | 53.8 µM |  | > 100 µM |  | > 100 µM |  | 47.8 µM |  | 61.1 µM |  | 50.4 µM |  | 29.9 µM |  | > 100 µM
6 | S=C1SCN(Cc2ccccc2)CN1Cc1ccccc1 | 15.5 µM | 43.6 µM | 6.5 µM | 27.8 µM | 9.55 µM | > 37.6 µM | 1.17 µM | 3.83 µM | 16 µM | 33.2 µM | 8.75 µM | 26.7 µM | 6.51 µM | 33.4 µM | 3.51 µM | 21.1 µM | 55.6 µM | > 100 µM | 3 µM | 15 µM
7 | CC(=O)Nc1ccc(OC(C)=O)cc1 | < 0.01 µM | 0.0488 µM | < 0.01 µM | 3.32 µM | < 0.0103 µM | 46.2 µM | < 0.01 µM | < 0.01 µM |  | 29.7 µM | 0.668 µM | 24.5 µM | < 0.01 µM | 0.165 µM | 5.74 µM | > 100 µM | < 0.01 µM | 14.7 µM | < 0.01 µM | 4.14 µM
8 | Cc1ccc2[nH]c(C(=O)NN3C(=O)C(C)SC34CCC(C)CC4)c(-c3ccccc3)c2c1 (configuration not stated) | 17.2 µM | 35 µM | 18.2 µM | 39 µM | 14.9 µM | 35.5 µM |  |  | 19.1 µM | 44.5 µM | 17 µM | 33.4 µM | 19.4 µM | 36.3 µM | 19.4 µM | 85.7 µM | 18.1 µM | 37.7 µM | 18 µM | 34.8 µM
9 | O=C(Nc1cn[nH]c1-c1nc2ccc(CN3CCOCC3)cc2[nH]1)NC1CC1 | 0.373 µM | 3.91 µM | 1.52 µM and 4.84 µM | 4.34 µM and > 10 µM | 0.344 µM and 1.84 µM | 2.44 µM and > 10 µM | 1.94 µM and 7.38 µM | 5.15 µM and > 10 µM | 1.72 µM and > 10 µM | 7.76 µM and > 10 µM | 3.05 µM and > 10 µM | 8.32 µM and > 10 µM | 0.385 µM and 0.963 µM | 2.13 µM and > 10 µM | 1.82 µM and 9.18 µM | 6.95 µM and > 10 µM | 0.721 µM and 1.93 µM | 4.01 µM and > 10 µM | 0.324 µM and 0.604 µM | 1.88 µM and > 10 µM
10 | O=C1c2ccccc2C(=O)c2c1oc1c2c(=O)[nH]c2ccc(Cl)cc21 | 0.214 µM | 0.959 µM | 0.397 µM | 1.53 µM | 0.456 µM | 3.99 µM | 1.7 µM | 5.25 µM | 1.33 µM | 3.36 µM | 0.226 µM | 0.441 µM | 0.304 µM | 1.31 µM | 0.256 µM | 0.981 µM | 0.202 µM | 0.643 µM | 0.321 µM | 1.3 µM
11 | Cc1cc(=O)oc2cc3oc(N(C)c4ccccc4)nc(=O)c3cc12 |  | > 100 µM |  | > 100 µM |  | > 100 µM |  | > 100 µM |  | > 100 µM |  | > 100 µM |  | > 100 µM |  | > 100 µM |  | > 100 µM |  | > 100 µM
12 | COc1cc2c(cc1O)c(=O)n(CCN(C)C)c1c3cc4c(cc3ncc21)OCO4 | 0.0234 µM | 0.0882 µM | < 0.01 µM | 0.0535 µM | < 0.01 µM | 19.9 µM | < 0.01 µM | 0.104 µM | 0.0451 µM | 0.285 µM | 0.0291 µM | 0.192 µM | 0.025 µM | 0.915 µM | < 0.01 µM | 0.0631 µM | < 0.01 µM | 0.044 µM | < 0.01 µM | 0.0245 µM
13 | CCn1c(SCC(=O)Nc2cc(C(F)(F)F)ccc2Cl)nc2ccccc2c1=O | 16.4 µM | 59.2 µM | 90.7 µM | > 100 µM | 41.2 µM | > 100 µM | > 100 µM | > 100 µM |  |  | 34.3 µM | > 100 µM | 35 µM | > 100 µM | 25.2 µM | > 100 µM | 14.6 µM | 33.5 µM | > 100 µM | > 100 µM
